Laboratory results as given in US20040265880A1, “Genomic and proteomic approaches for the development of cell culture medium” (Sigma-Aldrich Co., priority 2003, published 2004).
Entries after “also recorded” stand apart in the source; their conditions may differ.

Assays:
WI-38 cells = assay: Proliferation assay (resazurin), WI-38; format: cell-based, human; conditions: single factor added to base medium
From the text: In order to test the possibility of using the method as applied to HEK-293 cells to identify pathways in other cell lines, the normal human fibroblast, WI-38 was chosen. These cells are typically grown in a base medium containing anywhere from 3-10% FBS.
Of the initial 17 receptors gleaned from the microarray, 12 ligands were chosen for testing. These ligands were chosen in the same way as the ligands for the HEK-293 cells, based on signal versus controls as well as based on knowledge of the various factors.
Signaling within a cell for increased growth can be stimulated in a variety of different ways. Combinations of the 4 chosen factors as listed above we added to cell culture medium to determine if the addition of more than 1 of the positive ligands would produce an increased amount of proliferation, or if the ligands would all stimulate the same downstream pathways, leading to no added benefit. This method allowed for the formulation of cell culture medium that it had not been possible to formulate prior to these assays.
(§1) Cells were plated in each well of a 24-well tissue culture treated plate containing 1 ml of a base medium. The base medium contained the lowest amount of FBS required to maintain approximately half-maximal growth of the given cell type. Test conditions were performed in triplicate, with each test compound added to the base medium at three different concentrations. The cells were allowed to grow until they reached approximately 33% confluent. At this point, 100 μl of the resazurin solution from a resazurin based in vitro toxicology kit (Sigma-Aldrich Co., Product No. TOX-8) was added to each well. After sufficient incubation time to convert some of the resazurin, the fluorescence was measured on a HTS 7000 Plus BioAssay Reader (Perkin-Elmer, Boston, Mass.). Readings were taken once a day until the culture was confluent (typically about 4 days). A plate with base medium only (no cells) was used as a blank and subtracted from the RFU reading to establish the final RFU values.

HEK-293 cells = assay: Resazurin high throughput proliferation assay, HEK-293; format: cell-based, human; conditions: for effect on HEK-293 proliferation (RFU, resazurin): versus base medium with 1% FBS, each ligand at three concentrations
Description: Resazurin is a metabolic dye which is converted to a fluorescent product. The greater the amount of the fluorescent product that is generated, the more metabolism, which directly correlates with cell number.
In this assay, resazurin was added to HEK-293 cells plated in each well of a 24-well assay plate containing a test medium containing one of the 16 ligands corresponding to the positive growth factors/cytokines and incubated at 37° C. After a 30 minute incubation, the plate was analyzed on a standard fluorescence plate reader. A higher RFU value from the plate reader translates to a higher cell density in the wells.
Briefly, the 16 ligands corresponding to positive growth factor/cytokine receptors were tested in the resazurin assay, each ligand at three different concentrations. The graphical representations of the RFU values observed for each factor, shown in FIGS. 3 and 4, include the base medium (with 1% FBS) shown as the pink line. The other 3 lines on each graph represent the three (3) concentrations of growth factor tested in the assay. […] Finally, some factors had no effect on the proliferation of the HEK-293 culture (FIG. 3A-3D).
as §1

CHO-AP cells [1] = assay: Alkaline phosphatase production assay, CHO-AP; format: cell-based, Chinese hamster; conditions: suspension culture in serum-free CHO medium
Description: (§2) In order to further test the possibility of using the method as applied to HEK-293 cells to identify pathways in other cell lines, Chinese hamster ovary (CHO) cells were run on a microarray. Cells from the CHO-AP line produce alkaline phosphatase (AP). These cells are grown in a suspension culture in a serum-free CHO medium (Sigma-Aldrich Co., Product No. C5467).
On day 7 of the assay, the contents of each well were collected into 1.5 ml microfuge tubes. The cell suspensions were centrifuged at 16,000 rpm for five minutes. The supernatants were collected in 2 ml cryovials and the cell pellets were discarded. Each supernatant was diluted 1:10 and then assayed for the presence of Alkaline Phosphatase using the Alkaline Phosphatase Reporter Gene Assay Kit, Fluorescence (Product AP-F).

CHO-AP cells [2] = assay: Proliferation assay, CHO-AP; format: cell-based, Chinese hamster; conditions: suspension culture in serum-free CHO medium
Description: as §2
Although the cDNA array from Takara is designed with human sequences, the array was probed using cDNA made from mRNA from the CHO cells. This attempt generated 22 positive receptors, of which 16 were tested (Table 6).
as §1, with “The cells were allowed to grow until they reached approximately 33% confluent. At this point, 100 μl of the resazurin solution from a resazurin based in vitro toxicology kit (Sigma-Aldrich Co., Product No. TOX-8) was added to each well.” left out

Compound	effect on proliferation of WI-38 cells (RFU) (WI-38 cells)	effect on HEK-293 proliferation (RFU, resazurin) (HEK-293 cells)	also measured
platelet-derived growth factor [PDGF]	significant increased proliferation		effect on proliferation of WI-38 cells (RFU) (WI-38 cells; listed as platelet-derived growth factor AB): positive effects
CCCCC/C=C\C/C=C\C/C=C\C/C=C\CCCC(=O)O [arachidonic acid, reference compound]			effect on proliferation of HEK-293 cells (PKC pathway stimulation, Example 4) (HEK-293 cells; FIG. 10): positive effect
stromal cell-derived factor 1a [SDF1α]	significant increased proliferation	significant effect	effect on proliferation of WI-38 cells (RFU) (WI-38 cells; listed as stromal cell-derived factor 1 a): positive effects
interleukin-1 [IL-1]	significant increased proliferation		productivity of alkaline phosphatase by CHO-AP cells (CHO-AP cells [1]): increased the productivity; also recorded: positive effects; effect on proliferation of WI-38 cells (RFU) (WI-38 cells; listed as interleukin-1): positive effects; effect on proliferation of CHO-AP cells (CHO-AP cells [2]): positive effects
basic fibroblast growth factor [bFGF]	significant increased proliferation	significant effect	effect on proliferation of WI-38 cells (RFU) (WI-38 cells; listed as basic fibroblast growth factor): positive effects
epidermal growth factor [EGF, growth factor, ligand of EGF receptor]		significant effect	
